# Measured values published in patent US20030148991A1, “Combination of lipoic acid and c1 donors for the treatment of disorders of the central nervous system” (priority 2000, published 2003).
# Assays:
# whole brain membranes = assay: Measurement of membrane fluidity (DPH fluorescence anisotropy); set-up: species or system NMRI mice; settings: whole brain membranes from old (22 months) mice; 1, 10, 100 μmol/l and 1 mmol/l; 37° C.; FIGS. 1 and 2
# Method: The fluidity of whole brain membranes (without cerebellum, medella oblongata and brain stem) from young (3 months) and old (22 months) NMRI mice was determined by fluorescence spectroscopy.
# Mouse whole brain membranes were prepared by a modification of the method of Cohnen and Müller, 1993. The deep-frozen hemispheres were, after weighing, transferred into 15 ml of ice-cold buffer IV (Tris-HCl buffer 5 mmol/l; pH 7.4), homogenized using a homogenizer (Potter, glass homogenizer with Teflon pestle, from Braun) at about 1 100 rpm by moving the Teflon pestle up and down about ten times, and transferred into centrifuged tubes (PP30 ml, from Schubert). […]
# Membrane fluidity can be measured inter alia by fluorescence spectroscopic methods. In fluorescence polarization spectroscopy, a membrane-bound fluorescent dye is brought to an excited energy state by polarized light of a particular wavelength. […] Membrane fluidity is therefore also indicated as fluorescence anisotropy besides the fluorescence polarization. The anisotropy is in this case calculated from the measured polarization.
# The fluorescent dye diphenylhexatriene (DPH) was used for this purpose. […] This process is measured as anisotropy. […]
# brain cells = assay: Measurement of the production of free radicals (DHR 123 fluorescence); assay type: cell-based; settings: 100 and 500 μmol/l, time-dependent, compared with control, FIGS. 3 and 4
# Method: Oxidative stress or the production of free radicals was measured using the fluorescence dye dihydrorhodamine (DHR 123). Brain cells were enriched by incubation with DHR 123 in a waterbath at 37° C. for 15 minutes. DHR is then located in particualr in the mitochondria and fluoresces after oxidation by free radicals. Fluorescence was measured at an excitation wavelength of 500 nm and an emission wavelength of 536 nm. The generation of free radicals was then measured in the absence (control) and presence of lipoic acid at various concentrations (100 and 500 μmol/l).
structure (smiles),measurement,setting,value
"O=C(O)CCCCC1CCSS1 (centres unmarked) [lipoic acid, 5-(1,2-dithiolan-3-yl)valeric acid]",DPH anisotropy (membrane fluidity),whole brain membranes,reduce the anisotropy in membranes from old mice
same,generation of free radicals (increase in DHR 123 fluorescence),brain cells,counteracts the generation of free radicals
